Measured values taken from patent US20130143933A1, “TARGETED CORRECTION OF A GENETIC DEFECT IN CANCER THERAPY” (TRT Pharma Inc., priority 2011, published 2013).

Assays:
MCF-7 cells = test: Sensitization to paclitaxel, AlamarBlue cell survival, MCF-7; assay type: cell-based; conditions: MCF-7, PI3K mutation but no Keap1 mutation
pAkt (and pGSK-3β) = conditions: mouse xenograft models; oral, once daily, 10 mg/Kg; cited from earlier work
[1] = test system: phospho-GSK at Ser9 position; test: phospho-GSK (Ser9) level in H460 cells exposed to PF-04691502; assay type: cell-based; conditions: H460 cells (PI3K E545K, Keap1 D286H); within 6 hours
Experimental: (§1) H460 cells, which bear both mutations in PI3K (E545K) and Keap1 (D286H) are exposed the cells to the dual and potent PI3K and mTOR inhibitor PF-04691502 currently in clinical development. Within 6 hours a dramatic drop in phospho-GSK at the critical Ser9 position is detected (FIG. 6A). Within 24 hours cellular Nrf2 is reduced (FIG. 6A). This is not observed even at a higher dose in A549 cells, which have wild type PI3K (FIG. 6B).

H460 cells = test: Sensitization to paclitaxel, AlamarBlue cell survival, H460; assay type: cell-based; conditions: PF at 10 and 50 nm, range of paclitaxel doses
Experimental: PF-04691502 is tested to determine is it sensitizes H460 cells to paclitaxel in vitro, using two concentrations of PF (10 and 50 nm) and a range of paclitaxel doses. Cell survival is measured using AlamarBlue and fluorescence detection for viable (metabolically active) cells with 560Exnm/590EMnm filters.

A549 = test: Sensitization to paclitaxel, AlamarBlue cell survival, A549; assay type: cell-based; conditions: A549, Keap1 mutation but wild type PI3K
MCF7 cells = test: Sensitization to cisplatin or paclitaxel in Keap1-depleted (siRNA) MCF7 cells, Alamar blue; assay type: cell-based; conditions: MCF7 cells with Keap1 depletion (siRNA); PF-04691502 50nM for 24 h
Text: To further test the specific cytotoxicity of PF-04691502, H460 cells are transfected with an siRNA specifically designed to deplete GSK-3R levels. Another siRNA that depletes Keap1 is used to test whether cells which have an activating mutation of PI3K, but WT Keap1, (e.g. MCF7), are sensitized by PF-04691502 when Keap1 is depleted. The pSuper platform (OligoEngine, Seattle, Wash.) is used to clone both siRNAs. Small inhibitory RNA sequences are designed using software available online at invitrogen.com. The siRNA, when dimerized form Bgl II and Hind III restriction sites. The oligos are cloned into the Bgl II/Hind III sites of the pSuper-puro vector.
These experiments confirm that the proposed mechanism of sensitization is GSK-dependent in Keap1 mutated or depleted (siRNA) cells. Cells are exposed to PF-04691502 50nM for 24 h, at which time media is replaced with fresh PF-04691502 and one of either cisplatin or paclitaxel is added at various doses. Cell survival is determined using Alamar blue. The shift in IC50 is determined.

[2] = test system: A549 cells (wild type PI3K); test: phospho-GSK / Nrf2 level in A549 cells exposed to PF-04691502; assay type: cell-based; conditions: even at a higher dose
Experimental: as §1

Nrf2 [3] = test: Cellular Nrf2 level in H460 cells exposed to PF-04691502; assay type: cell-based; conditions: within 24 hours
Experimental: as §1

Nrf2 [4] = test: Immunoblotting of Nrf2 protein levels in A549 cells; assay type: cell-based; conditions: 48 hours, NR16 at 1 and 5 μM, compared to DMSO
Experimental: This effect is mediated by a depletion of Nrf2, as confirmed by immunoblotting of Nrf2 protein levels in A549 cells, exposed to NR16 for 48 hours (FIG. 4).

[5] = test system: A2ARE-dependent reporter activity in A549 cells; test: ARE-dependent luciferase assay (A2ARE-luc reporter) in A549 cells; assay type: cell-based; conditions: NR16 at 1, 2.5 and 5 μM, NR13 at 2.5 μM, 24 hours, vs DMSO vehicle
Experimental: A549 cells are highly resistant to carboplatin and constitutively express high level of Nrf2 due to a mutation (G333C) in Keap1. Using ARE-dependent luciferase assays in A549 cells, which have constitutively high Nrf2 levels, the 18 compounds that are designed to target the CTD of Keap1 are tested. Included amongst these are NR16 and NR13. […] A2ARE-luc plasmid is transiently transfected into A549 cells. pRL-TK is included as internal control. Transfected cells are treated with DMSO vehicle, compound NR16 at 1, 2.5 and 5 μM as well as NR13 at 2.5 μM for 24 hours. **p<0.005, ***p<0.0005 when compared with DMSO vehicle.
A2ARE-luc and pRL-TK plasmids are transiently transfected into A549 cells. 6 hours after transfection, the transfected cells are exposed to DMSO vehicle control or compound at designated doses (5 μM) for 24 hours. ***p<0.0001 when compared with vehicle control.

Row | Structure (SMILES) | sensitization to paclitaxel (cell survival) (MCF-7 cells) | depletion of phosphorylated forms of proteins in the PI3K pathway such as pAkt (and pGSK-3β) (pAkt (and pGSK-3β)) | persistence of depletion of phosphorylated PI3K pathway proteins (pAkt (and pGSK-3β)) [h] | phospho-GSK at Ser9 position [1] | sensitization to paclitaxel (cell survival) (H460 cells) | sensitization to paclitaxel (cell survival) (A549) | sensitization to cisplatin or paclitaxel (cell survival) (MCF7 cells) | drop in phospho-GSK / reduction of cellular Nrf2 [2] | cellular Nrf2 (Nrf2 [3]) | Nrf2 protein level (western blot) (Nrf2 [4]) | A2ARE-dependent reporter activity [5]
1 | COc1ccc(-c2cc3c(C)nc(N)nc3n([C@H]3CC[C@H](OCCO)CC3)c2=O)cn1 [PF-04691502] | no sensitization | significant depletion | ≥ 8 | dramatic drop | significant sensitization | no sensitization | sensitizing effect | not observed | reduced |  | 
2 | O=C(CCCSCCCC(=O)N/N=C/c1ccccc1)N/N=C/c1ccccc1 [NR13] |  |  |  |  |  |  |  |  |  | inactive | inactive
3 | O=C(CCCSCCCC(=O)N/N=C/c1ccccc1O)N/N=C/c1ccccc1O [NR16] |  |  |  |  |  |  |  |  |  | dose-dependent decrease | suppressed A2ARE-dependent reporter activity
